Laboratory results as given in patent US7811688B2 (Enersol, Inc. N.A., LP, priority 2002, dated 2010).
Structures can show the parent of a compound that is named as a salt. Where two headings read alike, the source gives them in different places.

Assays:
human nose [1] = assay: Standard human olfactory power / odor threshold; assay type: in vivo; conditions: for Odorant Threshold: minimum detection concentration
Text: Another important property of an odorant is its odor threshold. A suitable odorant should be detectable by the human nose at very low concentrations. […] To ensure simultaneous outflow in case of a leak, both components should be in the same phase and well blended. Some odor threshold values may be found in the Handbook of Hazardous Chemical Properties. In addition, the American Industrial Hygiene Association (AIHA) publishes a book of odor threshold values (Odor Thresholds for Chemicals with Established Occupational Health Standards).
Certain functional groups, such as the mercaptans, have high potency odors. According to published standardized human olfactory thresholds, mercaptans are among the strongest smelling compounds known. The stench of mercaptans is a key reason why these compounds were chosen for natural gas odorization. The following is a list of functional groups that may be used to highlight key factors for olfactory thresholds in humans. Standard olfactory power refers to the minimum concentration at which a particular compound is detectable by the average person. The mathematical definition is given as the negative log of odorant concentration expressed in volumetric fraction: pOl=−log [odorant]. Based on this definition an olfactory power of “0/6/9” corresponds to “odorlessness/1 ppm/1 ppb” threshold levels, respectively.

[2] = Odorant vapor pressure and odorant-hydrogen phase equilibrium (Raoult's Law)
Method: To quantitatively validate the concentration of an odorant in the gas phase at high pressure, first order phase equilibrium equations may be used.
It is also assumed that the odorant is saturated. This means that at the constant pressure when odorant is added, the amount of odorant in the vapor phase remains constant. The equation used to find the fraction of the vapor phase taken solely by the odorant is Raoult's Law: xAPA^sat=yAP
Where, xA is the odorant's fraction of the liquid phase, yA is the odorant's fraction of the vapor phase, PA^sat is the vapor pressure of the saturated odorant, and P is the total pressure within the system.
With these values, the concentration of odorant may be found at ambient conditions for the storage conditions of 6,000 psi. To calculate the pressure needed to produce a certain saturated concentration of odorant in the vapor phase: […]

human nose [3] = conditions: cited from earlier work; for Olfactory Power (pOl): in air, pOl=−log [odorant] as volumetric fraction; for Olfactory Power (p. ol): Table 4
average weight person = conditions: cited from earlier work
[4] = @ 25° C.; cited from earlier work

CN [methylamine, methyl amine]
Odorant Threshold (human nose [1]; Table 4): 0.01862 ppm
‘B’ Saturated Odorant Loading [6000 psi H2] ([2]; PA^sat/P × 10^6 at 6000 psi): 8543 ppm
Olfactory Power (pOl) (human nose [3]): 7.73

COC=O [methyl formate]
Olfactory Power (pOl) (human nose [3]): 4.03

CC=O [acetaldehyde]
Olfactory Power (pOl) (human nose [3]): 6.73

[Se] [selenium]
ingested quantity at which selenosis occurs (average weight person): 5 mg/day

CCSC [methylethylsulfide]
Olfactory Power (pOl) (human nose [3]): 8.42

CNC [dimethylamine, dimethyl amine]
Odorant Threshold (human nose [1]; Table 4): 0.08128 ppm
Saturated Odorant Concentration yA [2]: 4892 ppm
‘B’ Saturated Odorant Loading [6000 psi H2] [2]: 4892 ppm
Olfactory Power (pOl) (human nose [3]): 7.09
Odorant Vapor Pressure PA^SAT [4]: 29.4 psi

CCCl [ethylchloride]
Odorant Threshold (human nose [1]; Table 4): 4.074 ppm
‘B’ Saturated Odorant Loading [6000 psi H2] ([2]; PA^sat/P × 10^6 at 6000 psi): 3256 ppm
Olfactory Power (pOl) (human nose [3]): 5.39

CCN [ethylamine, ethyl amine]
Olfactory Power (pOl) (human nose [3]): 6.49

CC[Se]CC [diethylselenide, diethyl selenide]
Olfactory Power (pOl) (human nose [3]): 9.13

CS [methyl mercaptan]
Olfactory Power (pOl) (human nose [3]): 8.98

CC(C)(C)S [t-butyl mercaptan]
Saturated Odorant Concentration yA ([2]; @ 6000 psi, 25° C.): 583 ppm
maximum concentration in the vapor/gas phase ([2]; at 6000 psi): approximately 580 ppm
Olfactory Power (pOl) (human nose [3]): 9.48

c1ccncc1 [pyridine]
Odorant Threshold (human nose [1]; Table 4): 0.08511 ppm
Saturated Odorant Concentration yA [2]: 67 ppm
maximum concentration in the vapor/gas phase [2]: 67 ppm
‘B’ Saturated Odorant Loading [6000 psi H2] [2]: 67 ppm
Olfactory Power (p. ol) (human nose [3]): 7.07
Odorant Vapor Pressure PA^SAT [4]: 0.4 psi

CO [methanol]
Olfactory Power (pOl) (human nose [3]): 3.85

CCCC [butane]
Olfactory Power (pOl) (human nose [3]): 3.69

CCNCC [diethylamine]
Olfactory Power (pOl) (human nose [3]): 6.73

CCC [propane]
Olfactory Power (pOl) (human nose [3]): 2.57

CC[SeH] [ethyl selenol]
times higher detectability as compared to ethyl mercaptan (human nose [1]; FIG. 3): 67 times
Odorant Threshold (human nose [1]; Table 4): 0.000018 ppm
detectability (human nose [1]; based on its olfactory power): 1.8E-5 ppm
Odorant Vapor Pressure PA^SAT ([2]; @ 25° C., estimated value based on known vapor pressures of structurally similar compounds): ~5 psi
Saturated Odorant Concentration yA ([2]; @ 6000 psi, 25° C.): ~833 ppm
‘B’ Saturated Odorant Loading [6000 psi H2] ([2]; PA^sat/P × 10^6 at 6000 psi): 833 ppm
Olfactory Power (pOl) (human nose [3]): 10.74

CCCN [propylamine, propyl amine]
Odorant Threshold (human nose [1]; Table 4): 0.01097 ppm
Saturated Odorant Concentration yA ([2]; @ 6000 psi, 25° C.): 999 ppm
‘B’ Saturated Odorant Loading [6000 psi H2] ([2]; PA^sat/P × 10^6 at 6000 psi): 999 ppm
Olfactory Power (pOl) (human nose [3]): 7.96
Odorant Vapor Pressure PA^SAT [4]: 6.0 psi

COC(C)=O [methyl acetate]
Olfactory Power (pOl) (human nose [3]): 5.21

CCCO [Odorant 1-propanol, 1-propanol]
Olfactory Power (pOl) (human nose [3]): 5.62

CC(C)=O [acetone]
Olfactory Power (pOl) (human nose [3]): 4.84

CC(C)CS [isobutyl mercaptan]
Olfactory Power (pOl) (human nose [3]): 8.95

CCS [ethyl mercaptan]
times higher detectability as compared to ethanol (human nose [1]; FIG. 3): 30,000 times
Odorant Threshold (human nose [1]; Table 3): 0.00107 ppm
Odorant Threshold (human nose [1]; Table 4): 0.001072 ppm
Saturated Odorant Concentration yA ([2]; @ 6000 psi, 25° C.): 1705 ppm
‘B’ Saturated Odorant Loading [6000 psi H2] ([2]; PA^sat/P × 10^6 at 6000 psi): 1705 ppm
Olfactory Power (p. ol) (human nose [3]): 8.97
Olfactory Power (pOl) (human nose [3]): 8.97
Odorant Vapor Pressure PA^SAT [4]: 10.2 psi

CN(C)C [trimethyl amine]
Saturated Odorant Concentration yA ([2]; @ 6000 psi, 25° C.): 5172 ppm
Odorant Vapor Pressure PA^SAT [4]: 31.0 psi

CSC [dimethylsulfide]
Olfactory Power (pOl) (human nose [3]): 8.65

CCSCC [diethylsulfide]
Olfactory Power (pOl) (human nose [3]): 8.41

CC [ethane]
Olfactory Power (pOl) (human nose [3]): 2.00

C[Se]C [dimethyl selenide]
Saturated Odorant Concentration yA ([2]; @ 6000 psi, 25° C.): 773 ppm
Odorant Vapor Pressure PA^SAT [4]: 4.6 psi

CCO [ethanol]
Odorant Threshold (human nose [1]; Table 4): 28.840 ppm
‘B’ Saturated Odorant Loading [6000 psi H2] ([2]; PA^sat/P × 10^6 at 6000 psi): 190 ppm
concentration in the vapor phase ([2]; at 6000 psi): ≤ 190 ppm
Olfactory Power (pOl) (human nose [3]): 4.54
